Like-named read-outs stand apart in the source and are kept apart here.
Assay: Active ingredient remaining on foliage after rainfall
[1] = sprayed with the invention as adjuvant vs fungicide alone, 27 mm rainfall 2009, 24 mm 2010

Row | Compound | rain fastness on leaves (residues remaining on foliage after rainfall) | rain fastness on leaves (residues remaining on foliage after rainfall) [1]
1 | COc1ccc(C(=CC(=O)N2CCOCC2)c2ccc(Cl)cc2)cc1OC [dimethomorph] | Improved rain fastness | –
2 | O=[N+]([O-])c1cc(C(F)(F)F)c(Cl)c([N+](=O)[O-])c1Nc1ncc(C(F)(F)F)cc1Cl [fluazinam] | – | Improved rain fastness
3 | Mancozeb | – | Improved rain fastness

From patent US20230159667A1, “BIOCOMPATIBLE CARRIER FORMULATION FOR APPLICATIONS IN PLANT PROTECTION AND PLANT GROWTH STIMULATION OR IN COSMETICS AND PERSONAL CARE ON THE BASIS OF MODIFIED STARCH” (Amynova Polymers GmbH, priority 2020, published 2023)
